From the RepoRT retention time repository (doi:10.1016/j.chroma.2015.11.014)

Test: RP, Agilent ZORBAX Eclipse Plus C18, 150 × 2.1 mm, 3.5 µm, 40 °C, 0.3 mL/min, estimated dead time 1.1 min; A: water + 0.1% formic acid; B: acetonitrile + 0.1% formic acid; gradient (min/%B) 0/2 1/2 2/20 16.5/98 22/98
Settings: stereoisomer not certain

| LC retention time | Structure (SMILES) |
| --- | --- |
| 7.59 min | NC(=O)N1c2ccccc2C2OC2c2ccccc21 (centres undefined) |
| 4.79 min | CSCC1OC(n2cnc3c(N)ncnc32)C(O)C1O (centres undefined) |
| 4.47 min | CN(C)N=Nc1nc[nH]c1C(N)=O |
| 10.9 min | COC(=O)C1=C(C)NC(C)=C(C(=O)OC)C1c1ccccc1[N+](=O)[O-] |
| 11 min | COC(=O)C(=Cc1ccc(OC)cc1)C(=O)OC |
| 6.12 min | Cc1cc(C)nc(NS(=O)(=O)c2ccc(N)cc2)n1 |
| 12.7 min | COc1ccc(C(=O)c2ccc(OC)cc2O)c(O)c1 |
| 14.5 min | C#CC1(O)CCC2C3CCc4cc(OC)ccc4C3CCC21C (centres undefined) |
| 5.57 min | CCN1CCCC1CNC(=O)c1cc(S(=O)(=O)CC)c(N)cc1OC (centres undefined) |
| 5.28 min | Nc1cccc2[nH]c(-c3ccccc3)nc12 |
| 9.91 min | CCc1cccc(C)c1N(C(=O)C(=O)O)C(C)COC (centres undefined) |
| 11.7 min | CCCCCCCCCCC(C(=O)OCC)[N+](C)(C)Cc1ccccc1 (centres undefined) |
| 8.37 min | O=C(c1ccc(O)cc1O)c1ccc(O)cc1O |
| 7.48 min | COc1cc(O)c(C(=O)c2ccccc2)cc1S(=O)(=O)O |
| 9.53 min | CN1C(C(=O)Nc2ccccn2)=C(O)c2ccccc2S1(=O)=O |
| 8.48 min | CC(Cc1ccc(C(C)C(=O)O)cc1)C(=O)O (centres undefined) |
| 12.9 min | CCC(CCC(C)O)COC(=O)c1ccccc1O (centres undefined) |
| 6.26 min | Cc1cc(=O)n(-c2ccccc2)n1C |
| 4.81 min | Cc1ncc([N+](=O)[O-])n1CCO |

| LC retention time | Structure (SMILES) |
| --- | --- |
| 4.86 min | CCN(CC)CCNC(=O)c1cc(S(C)(=O)=O)ccc1OC |
| 4.62 min | c1ccc(CC2=NCCN2)cc1 |
| 5.24 min | Cn1cnc2c1c(=O)[nH]c(=O)n2C |
| 17.6 min | C=C(c1ccc(C(=O)O)cc1)c1cc2c(cc1C)C(C)(C)CCC2(C)C |
| 9.23 min | NC(=O)N1c2ccccc2CCc2ccccc21 |
| 3.2 min | Nc1ncnc2c1ncn2C1OC(CO)C(O)C1O (centres undefined) |
| 7.19 min | NC(=O)N1c2ccccc2CC(O)c2ccccc21 (centres undefined) |
| 7.02 min | Cc1ccc2n[nH]nc2c1 |
| 4.89 min | CC(C)NCC(O)COc1ccc(CC(=O)O)cc1 (centres undefined) |
| 10.1 min | CCOC(=O)Nc1ccc(C)c(NC(=O)OCC)c1 |
| 7.36 min | CCCc1nc(C(C)(C)O)c(C(=O)O)n1Cc1ccc(-c2ccccc2-c2nn[nH]n2)cc1 |
| 5.15 min | CC(C)NCC(O)COc1cccc2[nH]ccc12 (centres undefined) |
| 4.96 min | CCN1CCCC1CNC(=O)c1cc(S(N)(=O)=O)ccc1OC (centres undefined) |
| 11 min | O=c1cc(-c2ccccc2)oc2cc(O)cc(O)c12 |
| 3.12 min | NC1=NC(O)c2ncn(COCCO)c2N1 (centres undefined) |
| 7.09 min | O=S(=O)(O)c1ccc2ccccc2c1 |
| 8.77 min | O=C(CCc1ccc(O)cc1)c1c(O)cc(O)cc1O |
| 6.46 min | COc1ccc2nc(S(=O)Cc3ncc(C)c(OC)c3C)[nH]c2c1 (centres undefined) |
| 7.89 min | O=C(O)c1ccccc1O |

| LC retention time | Structure (SMILES) |
| --- | --- |
| 7.25 min | COc1ccc(C(C[N+](C)(C)[O-])C2(O)CCCCC2)cc1 (centres undefined) |
| 15.4 min | CCOc1ccccc1NC(=O)C(=O)Nc1ccccc1CC |
| 7.14 min | C[N+](C)(CCOc1ccccc1)Cc1ccccc1 |
| 7.28 min | CCCc1nn(C)c2c(=O)[nH]c(-c3cc(S(=O)(=O)N4CCN(C)CC4)ccc3OCC)nc12 |
| 7.74 min | O=c1c(-c2ccc(O)cc2)coc2cc(O)ccc12 |
| 4.79 min | Nc1nc2ccccc2[nH]1 |
| 4.69 min | CC(C)(C)NCC(O)c1ccc(O)c(CO)c1 (centres undefined) |
| 10.4 min | CCN(CC)C(=O)c1cccc(C)c1 |
| 5.04 min | O=S(=O)(O)c1ccc2nc(-c3ccccc3)[nH]c2c1 |
| 7.45 min | CN(CC=CC#CC(C)(C)C(=O)O)Cc1cccc2ccccc12 |
| 4.58 min | CC(C)NCC(O)c1ccc(NS(C)(=O)=O)cc1 (centres undefined) |
| 5.09 min | CC[N+](CC)(CC)Cc1ccccc1 |
| 10.4 min | CC12CCC3c4ccc(O)cc4CCC3C1CCC2O (centres undefined) |
| 10.1 min | COc1ccc(-c2coc3cc(O)ccc3c2=O)cc1 |
| 4.66 min | O=C(O)c1c2ccccc2nc2ccccc12 |
| 4.69 min | Nc1ccc(O)c([N+](=O)[O-])c1 |
| 7.07 min | Cc1cc2nc3[nH]c(=O)[nH]c(=O)c3nc2cc1C |
| 5.02 min | COc1cc(Cc2cnc(N)nc2N)cc(O)c1OC |
| 2.92 min | Nc1nc2c(ncn2COCC(=O)O)c(=O)[nH]1 |

Further lines, the compound ahead of its results:

| Structure (SMILES) | LC retention time |
| --- | --- |
| CC[N+](CC)(CC)CC | 2.28 min |
| CCCCCCCCCCCCCCCC(=O)OCC(O)COP(=O)([O-])OCC[N+](C)(C)C (centres undefined) | 14.9 min |
| CCC1CCCC(OC2CCC(N(C)C)C(C)O2)C(C)C(=O)C2=CC3C(C=CC4CC(OC5OC(C)C(OC)C(OC)C5OC)CC43)C2CC(=O)O1 (centres undefined) | 10.4 min |
| CCCCCCCCCCCCCCN(C)C | 11.4 min |
| CC12CCC(=O)C=C1CCC1C2CCC2(C)C(O)CCC12 (centres undefined) | 11 min |
| CC12CCC3C(CC=C4CC(O)CCC43C)C1CCC2=O (centres undefined) | 11.6 min |
| O=P(O)(O)Oc1ccccc1 | 3.47 min |
| c1ccc(Nc2ccc(Nc3ccccc3)cc2)cc1 | 14.5 min |
| O=[N+]([O-])c1ccc(O)c([N+](=O)[O-])c1 | 9.21 min |
| CCP(=O)(CC)CC | 5.15 min |
| ON(Cc1ccccc1)Cc1ccccc1 | 8.96 min |
| CNC(=O)Oc1ccccc1OC(C)C | 9.47 min |
| S=P(c1ccccc1)(c1ccccc1)c1ccccc1 | 14.5 min |
| CC(=O)Nc1ccc(C(=O)O)cc1 | 5.59 min |
| O=c1[nH]c2c(c(=O)n1C1CCCCC1)CCC2 | 9.02 min |
| CCOc1ccc(C[P+](c2ccccc2)(c2ccccc2)c2ccccc2)cc1 | 9.45 min |
| Cc1c(N(C)C)c(=O)n(-c2ccccc2)n1C | 4.71 min |
| CCCCCCCCC=CCCCCCCCC[N+](C)(C)C | 13.7 min |
| O=C1CC2(CCCCC2)C(=O)N1 | 7.4 min |
| O=C(O)c1ccccc1 | 7.56 min |
| CC12CCC(=O)C=C1CCC1C2C(=O)CC2(C)C1CCC2(O)C(=O)CO (centres undefined) | 8.4 min |

| Structure (SMILES) | LC retention time |
| --- | --- |
| CC(C)(c1ccc(OP(=O)(Oc2ccccc2)Oc2ccccc2)cc1)c1ccc(OP(=O)(Oc2ccccc2)Oc2ccccc2)cc1 | 17.7 min |
| CNCC(CC(=O)O)CC(C)C (centres undefined) | 4.84 min |
| CCCCN1C=CN(C)C1C (centres undefined) | 4.73 min |
| CN(C)c1ccc(C=O)cc1 | 8.87 min |
| O=P(Oc1ccccc1)(Oc1ccccc1)Oc1ccccc1 | 14.1 min |
| CCCCCCCCCCCCCC(=O)OCC(O)COP(=O)([O-])OCC[N+](C)(C)C (centres undefined) | 12.7 min |
| O=P(Cc1ccccc1)(c1ccccc1)c1ccccc1 | 10.8 min |
| CC(C)C(NC(=O)OC(C)(C)C)C(=O)O (centres undefined) | 9 min |
| O=c1[nH]c(=O)c2[nH]c(=O)[nH]c2[nH]1 | 2.08 min |
| CSc1nc(NC(C)C)nc(NC(C)C)n1 | 9.53 min |
| c1ccc2sc(C3CCCNC3)nc2c1 (centres undefined) | 5.62 min |
| O=C(OC1CC2CCC(C1)[N+]21CCCC1)C(O)(c1ccccc1)c1ccccc1 (centres undefined) | 7.41 min |
| Oc1ccc(Nc2ccccc2)cc1 | 10 min |
| O=P(O)(Oc1ccccc1)Oc1ccccc1 | 8.14 min |
| CCCC[P+](CCCC)(CCCC)CCCC | 9.65 min |
| O=C(C[P+](c1ccccc1)(c1ccccc1)c1ccccc1)OCc1ccccc1 | 9.2 min |
| Cc1c[nH]c(=O)[nH]c1=O | 3.23 min |
| CNC(=O)Oc1cccc2ccccc12 | 10.1 min |
| CC(C)C(=O)c1ccc(C(C)C(=O)O)cc1 (centres undefined) | 10.2 min |
| c1ccc(CNCc2ccccc2)cc1 | 6 min |
| C#CC1(O)CCC2C3CCC4=CC(=O)CCC4(C)C3CCC21C (centres undefined) | 11.7 min |

| Structure (SMILES) | LC retention time |
| --- | --- |
| O=C(c1ccccc1)c1ccc2n1CCC2C(=O)O (centres undefined) | 9.5 min |
| O=C1NS(=O)(=O)c2ccccc21 | 5.2 min |
| CCC1OC(=O)CC(O)C(C)C(OC2OC(C)C(OC3CC(C)(O)C(O)C(C)O3)C(N(C)C)C2O)C(CC=O)CC(C)C(=O)C=CC(C)=CC1COC1OC(C)C(O)C(OC)C1OC (centres undefined) | 8.18 min |
| NC(=O)CN1CCCC1=O | 2.62 min |
| O=C(NO)c1ccccc1 | 4.89 min |
| COc1ccc2c3c1OC1C(=O)C=CC4(O)C(C2)N(C)CCC314 (centres undefined) | 5.37 min |
| CNC(=O)ON=C(C)C(C)SC (centres undefined) | 7.75 min |
| CC(C)(C)c1cc([N+](=O)[O-])cc([N+](=O)[O-])c1O | 13.9 min |
| O=P(O)(O)Cc1ccccc1 | 5.04 min |
| Nc1ccccc1C[P+](c1ccccc1)(c1ccccc1)c1ccccc1 | 8.43 min |
| CC(C)OP(=O)(Oc1ccccc1)Oc1ccccc1 | 12.8 min |
| CC1(C)CC(=O)CC(C)(C)N1 | 2.82 min |
| CNC(=C[N+](=O)[O-])NCCS(=O)Cc1ccc(CN(C)C)o1 (centres undefined) | 2.94 min |
| CCOC(=O)c1cncn1C(C)c1ccccc1 (centres undefined) | 8.83 min |
| CN1C=CN(Cc2ccccc2)C1 | 4.93 min |
| CCNC(=O)NC1CCCCC1 | 7.7 min |
| COC(=O)C1CCC(=O)N1 (centres undefined) | 4.58 min |
| CCC(C(=O)O)N1CCCC1=O (centres undefined) | 5.7 min |
| CC(C)[P+](c1ccccc1)(c1ccccc1)c1ccccc1 | 7.72 min |
| CC(NC(CCc1ccccc1)C(=O)O)C(=O)C1CCCN1C(=O)O (centres undefined) | 5.84 min |
